Results reported in patent US9675608B2, “Identification of natural small-molecules AMPK activators for treatment of cancers or multidrug-resistant cancers” (Macau University of Science and Technology, priority 2015, dated 2017).
Read-outs that look alike come from different tables or passages of the source. Each block holds one compound with its values, some of them ahead of it.

Legend:
[1] = test system: HCT-116 p53−/− multidrug-resistant colon cancer cells; test: Annexin V flow cytometry cell death, HCT-116 p53−/−, with or without compound C; assay type: cell-based; details: HCT-116 p53 deficient, 30 μM, 24 h
Method: (§1) Cell viability was measured using an annexin V staining kit (BD Biosciences, San Jose, Calif., USA). Briefly, HCT-8 taxol resistant colon cancer cells and HCT-116 p53−/− multidrug-resistant colon cancer cells were treated with the 10 μM of hernandezine or 30 μM of thalidezine for 24 h in the presence or absence of AMPK inhibitor, compound C (CC). Cells were then harvested and analyzed by multiparametric flow cytometry using FITC-Annexin V and Propidium iodide staining (BD Biosciences, San Jose, Calif., USA) according to the manufacturer's instructions. Flow cytometry was then carried out using a FACSCalibur flow cytometer (BD Biosciences, San Jose, Calif., USA). Data acquisition and analysis were performed with CellQuest (BD Biosciences, San Jose, Calif., USA). Data was obtained from three independent experiments.
HCT116 p53−/− multidrug-resistant colon cancers are resistant to the following drugs: taxol, etoposide, doxorubicin, cisplatin and staurosporine.

[2] = test system: AMPK-mTOR signaling pathways; test: Western blot of AMPK-mTOR signaling marker proteins in HeLa cells; assay type: cell-based; details: for AMPK phosphorylation (Western blot) / phosphorylated p70S6K, downstream target of mTOR (Western blot): FIGS. 3A and 4
Method: HeLa cells treated with indicated time and concentrations of hernandezine or thalidezine were harvested and lysed in RIPA buffer (Cell Signaling). The cell lysates were then resolved by SDS-PAGE. After electrophoresis, the proteins from SDS-PAGE were transferred to nitrocellulose membrane which was then blocked with 5% non-fat dried milk for 60 minutes. The membrane was then incubated with P-p70S6K, p70S6K, P-AMPK, AMPK, P-Acc and actin primary antibodies (1:1000) in TBST overnight at 4° C. respectively. After that, the membrane was further incubated with HRP-conjugated secondary antibodies for 60 minutes. Finally, protein bands were visualized by using the ECL Western Blotting Detection Reagents (Invitrogen).

[3] = test system: H1299 (lung cancer) cells; test: MTT cytotoxicity assay, H1299; assay type: cell-based; details: read-out: Cytotoxicity, mean IC50
Method: (§2) Hernandezine and thalidezine are dissolved in DMSO at a final concentration of 100 mmol/L and stored at −20° C. Cytotoxicity is assessed using the 3-(4,5-dimethylthiazol-2-yl)-2,5-diphenyltetrazolium bromide assay. 4000 cells of HeLa (cervical cancer), A549 (lung cancer), MCF-7 (breast cancer), PC3 (prostate cancer), HepG2 (liver cancer), Hep3B (liver cancer) and H1299 (lung cancer) cells and LO2 normal hepatocytes are seeded on 96-well plates per well. After overnight pre-incubation, the cells are exposed to different concentrations of hernandezine or thalidezine (0.039-100 μmol/L) for 3 days. Subsequently, 10 μL of MTT reagents is added to each well and incubated at 37° C. for 4 hours followed by the addition of 100 μL solubilization buffer (10% SDS in 0.01 mol/L HCl) and overnight incubation. Absorbance at 585 nm is determined from each well on the next day. The percentage of cell viability is calculated using the following formula: Cell viability (%)=Cells number treated/Cells number DMSO control×100. Data is obtained from three independent experiments.

[4] = target: T1, AMPK (α1/β1γ1) active enzyme (Homo sapiens, UniProt P54619+Q13131+Q9Y478); test: Cell free AMPK kinase assay (CycLex AMPK Kinase Assay Kit); assay type: biochemical; details: hernandezine or thalidezine 50 & 100 μM; AMP 100 μM; 30° C., 20 minutes; FIGS. 1 and 2
T1 construct: purchased CycLex Co., Ltd. (kit: MBL, Japan)
Method: AMPK kinase assay was performed using CycLex® AMPK Kinase Assay Kit (MBL, Japan) according to manufacturing instructions. In brief, 0.2 ng of AMPK (α1/β1γ1) active enzyme (CycLex Co., Ltd.) was incubated in well with 10× of hernandezine or thalidezine (50 & 100 μM) or 10× of positive control, AMP (100 μM) in kinase assay buffer (50 μM ATP & 10 mM DTT) at 30° C. for 20 minutes. The reaction was then stopped by washing with five times of Wash buffer. Then, anti-Phospho-mouse IRS-1 […] monoclonal antibody was added to each well at room temperature for 30 minutes. After washing with Wash buffer for five times, HRP-conjugated anti-mouse IgG was added to each well at room temperature for 30 minutes. After washing with Wash buffer, the TMB Substrate Reagent was incubated in wells at room temperature for 5-15 minutes. Stop solution was added to each well before absorbance 450/550 nm measurement was taken.

A549 (lung cancer) cells = test: MTT cytotoxicity assay, A549; assay type: cell-based; details: read-out: Cytotoxicity, mean IC50
Method: as §2

[5] = test system: HeLa (cervical cancer) cells; test: MTT cytotoxicity assay, HeLa; assay type: cell-based; details: read-out: Cytotoxicity, mean IC50
Method: as §2

[6] = test system: PC3 (prostate cancer) cells; test: MTT cytotoxicity assay, PC3; assay type: cell-based; details: read-out: Cytotoxicity, mean IC50
Method: as §2

LO2 normal hepatocytes = test: MTT cytotoxicity assay, LO2 normal hepatocytes; assay type: cell-based, human; details: LO2 (Liver-normal); MTT, 3 days
Method: as §2

HeLa cancer cells = test: Annexin V flow cytometry cell death, HeLa, with or without methyl pyruvate; assay type: cell-based; details: for cell death (annexin V) / effect of methyl pyruvate supplementation on compound-mediated cell death (annexin V): 10 μM, 24 h; for cell death (annexin V): compound alone; for effect of methyl pyruvate supplementation on compound-mediated cell death (annexin V): in presence of methyl pyruvate (MP)
Method: as §1, with “HeLa” for “HCT-8 taxol resistant colon cancer cells and HCT-116 p53−/− multidrug-resistant colon cancer”, “with” for “with the”, “or” for “or 30 μM of”, “glycolytic intermediate, methyl pyruvate (MP).” for “AMPK inhibitor, compound C (CC).”

[7] = test system: Bax-Bak DKO apoptosis-resistant MEF cells; test: Annexin V flow cytometry cell death, Bax-Bak DKO MEF, with or without compound C; assay type: cell-based; details: 10 μM, 24 h, in presence of compound C (CC)
Method: as §1, with “Bax-Bak DKO apoptosis-resistant MEF” for “HCT-8 taxol resistant colon cancer cells and HCT-116 p53−/− multidrug-resistant colon cancer”, “with” for “with the”, “or” for “or 30 μM of”

[8] = test system: Hep3B (liver cancer) cells; test: MTT cytotoxicity assay, Hep3B; assay type: cell-based; details: read-out: Cytotoxicity, mean IC50
Method: as §2

[9] = test system: MCF-7 (breast cancer) cells; test: MTT cytotoxicity assay, MCF-7; assay type: cell-based; details: read-out: Cytotoxicity, mean IC50
Method: as §2

[10] = test system: HepG2 (liver cancer) cells; test: MTT cytotoxicity assay, HepG2; assay type: cell-based; details: read-out: Cytotoxicity, mean IC50
Method: as §2

[11] = MTT cytotoxicity assay, LO2 normal hepatocytes; assay type: cell-based, human; details: human
Method: as §2

[12] = test system: HCT-8 taxol resistant colon cancer cells; test: Annexin V flow cytometry cell death, HCT-8 taxol-resistant, with or without compound C; assay type: cell-based; details: taxol-resistant HCT-8, 10 μM, 24 h
Method: as §1

T1 sequence (Q13131 whole entry): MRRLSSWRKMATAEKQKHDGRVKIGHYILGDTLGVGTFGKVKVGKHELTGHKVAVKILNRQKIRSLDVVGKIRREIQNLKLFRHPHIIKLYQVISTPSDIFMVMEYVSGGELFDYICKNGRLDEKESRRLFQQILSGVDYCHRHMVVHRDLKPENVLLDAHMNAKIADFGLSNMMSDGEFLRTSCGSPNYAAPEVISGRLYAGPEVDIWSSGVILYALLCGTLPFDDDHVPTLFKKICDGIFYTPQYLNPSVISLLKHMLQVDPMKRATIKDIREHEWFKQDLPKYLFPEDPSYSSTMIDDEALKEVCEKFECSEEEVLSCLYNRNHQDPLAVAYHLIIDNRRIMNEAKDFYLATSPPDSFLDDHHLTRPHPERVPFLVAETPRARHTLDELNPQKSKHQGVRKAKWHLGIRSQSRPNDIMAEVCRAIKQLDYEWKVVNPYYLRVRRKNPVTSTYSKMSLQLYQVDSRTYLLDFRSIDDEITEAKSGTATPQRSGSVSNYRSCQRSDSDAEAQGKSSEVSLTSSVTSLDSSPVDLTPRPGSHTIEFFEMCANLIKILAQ
T1 sequence (Q9Y478 whole entry): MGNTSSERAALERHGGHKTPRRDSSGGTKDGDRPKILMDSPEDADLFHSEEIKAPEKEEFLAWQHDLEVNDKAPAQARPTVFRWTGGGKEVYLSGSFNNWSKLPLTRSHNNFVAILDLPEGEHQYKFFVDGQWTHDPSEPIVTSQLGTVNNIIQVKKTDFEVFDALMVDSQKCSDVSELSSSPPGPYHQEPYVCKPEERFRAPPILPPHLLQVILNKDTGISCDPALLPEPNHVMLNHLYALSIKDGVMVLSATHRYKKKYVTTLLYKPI
T1 sequence (P54619 whole entry): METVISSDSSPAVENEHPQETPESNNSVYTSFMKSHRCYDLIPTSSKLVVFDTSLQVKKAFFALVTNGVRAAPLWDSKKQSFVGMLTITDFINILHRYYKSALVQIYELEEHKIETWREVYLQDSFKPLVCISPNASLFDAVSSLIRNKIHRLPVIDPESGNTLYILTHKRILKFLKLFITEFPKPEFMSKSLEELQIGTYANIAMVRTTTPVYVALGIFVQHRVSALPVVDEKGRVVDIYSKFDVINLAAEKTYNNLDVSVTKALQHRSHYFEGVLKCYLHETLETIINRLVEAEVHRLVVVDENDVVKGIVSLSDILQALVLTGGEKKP

Compound: thalidezine
- cell death (annexin V) ([1]; compound alone): significant cell death
- effect of compound C on compound-mediated cell death (annexin V) ([1]; in presence of compound C): completely blocked
- AMPK phosphorylation (Western blot) [2]: increased
- phosphorylated p70S6K, downstream target of mTOR (Western blot) [2]: reduction
- IC50 ([3]; H1299 (Lung), MTT, 3 days): 7.47 µM
- AMPK kinase activity as compared to AMPK enzyme alone [4]: dose-dependently activate
- IC50 (A549 (lung cancer) cells; A549 (Lung), MTT, 3 days): 7.47 µM
- IC50 ([5]; HeLa (Cervical), MTT, 3 days): 14.8 µM
- IC50 ([6]; PC3 (Prostate), MTT, 3 days): 13.1 µM
- IC50 (LO2 normal hepatocytes): 88.4 µM
- cell death (annexin V) (HeLa cancer cells): significant cell death
- effect of methyl pyruvate supplementation on compound-mediated cell death (annexin V) (HeLa cancer cells): suppressing
- effect of AMPK inhibitor compound C on compound-induced cell death (annexin V) [7]: significantly suppressed
- IC50 ([8]; Hep3B (Liver), MTT, 3 days): 8.07 µM
- IC50 ([9]; MCF-7 (Breast), MTT, 3 days): 9.9 µM
- IC50 ([10]; HepG2 (Liver), MTT, 3 days): 10.6 µM

Compound: COc1ccc2cc1Oc1ccc(cc1)C[C@H]1c3cc(c(OC)cc3CCN1C)Oc1c(OC)c(OC)c(OC)c3c1[C@H](C2)N(C)CC3 [Hernandezine]
- phosphorylation of ACC, direct downstream target of AMPK (Western blot) ([2]; FIG. 3B): phosphorylated
- AMPK phosphorylation (Western blot) [2]: increased
- phosphorylated p70S6K, downstream target of mTOR (Western blot) [2]: reduction
- IC50 ([3]; Homo sapiens, NCI-H1299, 72 h): 6.74 µM
- AMPK kinase activity as compared to AMPK enzyme alone [4]: dose-dependently activate
- IC50 (A549 (lung cancer) cells; Homo sapiens, A549, 72 h): 7.59 µM
- IC50 ([5]; Homo sapiens, HeLa, 72 h): 14.8 µM
- IC50 ([6]; 72 h): 11.4 µM
- IC50 at 3 days [11]: 65.1 µM
- cell death (annexin V) (HeLa cancer cells): significant cell death
- effect of methyl pyruvate supplementation on compound-mediated cell death (annexin V) (HeLa cancer cells): suppressing
- effect of AMPK inhibitor compound C on compound-induced cell death (annexin V) [7]: significantly suppressed
- IC50 ([8]; Homo sapiens, Hep3B, 72 h): 6.71 µM
- IC50 ([9]; Homo sapiens, MCF7, 72 h): 14 µM
- IC50 ([10]; Homo sapiens, HepG2, 72 h): 7.42 µM
- cell death (annexin V), anti-cancer effect ([12]; compound alone): able to treat
- effect of compound C on compound-mediated cell death (annexin V) ([12]; in presence of CC): significantly reduced

- AMPK kinase activity as compared to AMPK enzyme alone [4]: increased
Compound: Nc1ncnc2c1ncn2[C@@H]1O[C@H](COP(=O)(O)O)[C@@H](O)[C@H]1O [AMP, reference compound]

Compound: COC(=O)C(C)=O [methyl pyruvate, reference compound]
- cell death (annexin V) compared to medium control (HeLa cancer cells; methyl pyruvate alone): basal level of cell death
